Laboratory results taken from patent publication US6960611B2, “Sulfonyl-containing 2,3-diarylindole compounds, methods for making same, and methods of use thereof” (Institute of Materia Medica, priority 2002, dated 2005).

How the values were obtained:
[1] = system: carrageenan-induced foot pad edema; experiment: Rat carrageenan-induced foot pad edema assay; type: in vivo; conditions: 10 mg/kg oral
Description: Male Sprgue-Dawley rats (190-220 g ) were fasted with free access to water at least 16 h prior experiments. The rats were dosed orally with a 1 ml suspension of test compound in vehicle (0.5% methyl cellulose and 0.025% Tween-20) or with vehicle alone. One hour later a subplantar injection of 0.1 ml of 1% solution of carageenan in 0.9% strile saline was administered to the right hind foot pad. Paw volume was measured with a displacement plethysmometer 2, 3, and 4 h after carrageenan injection.

COX-2 = biological target: T1, COX-2 (Mus musculus, UniProt Q05769); experiment: COX-2 assay: PGE2 release (RIA) from LPS-stimulated mouse peritoneal macrophages; type: cell-based, mice; conditions: LPS 1 mg/L 9 h, PGE2 by RIA
T1 construct: endogenous in cells; host or cells: thioglycollate-elicited peritoneal macrophages of male C57BL-6J mice, stimulated with LPS
T1 sequence (Q05769 18-604): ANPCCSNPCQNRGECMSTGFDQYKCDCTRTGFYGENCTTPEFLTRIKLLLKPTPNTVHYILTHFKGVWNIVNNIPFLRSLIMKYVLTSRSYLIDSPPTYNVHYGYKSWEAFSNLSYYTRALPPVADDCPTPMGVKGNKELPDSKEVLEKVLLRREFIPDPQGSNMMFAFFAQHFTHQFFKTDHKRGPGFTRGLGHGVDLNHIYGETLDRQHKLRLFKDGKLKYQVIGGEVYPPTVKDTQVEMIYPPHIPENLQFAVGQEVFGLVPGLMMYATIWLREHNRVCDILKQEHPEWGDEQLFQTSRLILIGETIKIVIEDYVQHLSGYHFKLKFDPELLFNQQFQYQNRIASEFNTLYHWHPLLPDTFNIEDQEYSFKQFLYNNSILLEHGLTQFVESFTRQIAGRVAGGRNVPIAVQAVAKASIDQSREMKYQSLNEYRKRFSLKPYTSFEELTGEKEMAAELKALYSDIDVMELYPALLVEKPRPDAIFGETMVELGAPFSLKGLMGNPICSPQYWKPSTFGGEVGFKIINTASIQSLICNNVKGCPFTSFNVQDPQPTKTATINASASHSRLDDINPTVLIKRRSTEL
Description: Cell culture: Adherent macrophages were harvested from the peritoneal cells of male mice (C57BL-6J, Level 2, from Experiment Animal Center, Academy of Military Medical Science) 3 d after the injection (ip) of brewer thioglycollate medium (5 mL/100 g body weight). […] Cell viability was examined by trypan blue dye exclusion. All incubation procedures were performed with 5% CO2 in humidified air at 37° C.
COX-2 assay: Macrophages were incubated with test compound at different concentrations or solvent (Me2SO) for 1 h and were stimulated with LPS 1 mg/L for 9 h. The amount of PGE2 in supernatants was measured by RIA. The inhibitory ratio was calculated using the same Formula as in COX-1 assay section. Cs, Ct, Cc refer to PGE2 concentration in supernatants of LPS, test compound, and control groups, respectively.
Statistical analysis: Data were expressed as the mean±SD of more than three independent experiments. Dose-inhibitory effect curves were fit through “uphill dose response curves, variable slope” using Prism, GraphPad (version 3.00): [formula]

Row | melting point | IC50 (COX-2) | Molecule | edema (paw volume increase) ([1]; 2 h after carrageenan) | edema (paw volume increase) ([1]; 3 h after carrageenan) | inhibitory percentage of edema ([1]; 3 h after carrageenan) | edema (paw volume increase) ([1]; 4 h after carrageenan) | inhibitory percentage of edema ([1]; 4 h after carrageenan) | inhibitory percentage of edema ([1]; 2 h after carrageenan)
1 | 273 to 275 °C | 0.27 nM | CS(=O)(=O)c1ccc(-c2c(-c3ccccc3)[nH]c3ccc(Cl)cc23)cc1 [Example 87, 2-phenyl-3-(4-methylsulfonylphenyl)-5-chloroindole] | 45.4 ± 9.7% | 46.9 ± 13.6% | 23.4% | 43.4 ± 13.4% | 27.9% | –
2 | 241 to 243 °C | 6.44 nM | NS(=O)(=O)c1ccc(-c2[nH]c3ccccc3c2-c2ccc(O)cc2)cc1 [Example 96, 2-(4-aminosulfonylphenyl)-3-(4-hydroxyphenyl)indole] | – | – | – | – | – | –
3 | 238 to 240 °C | 6 nM | CC(=O)Oc1ccccc1-c1[nH]c2ccc(Cl)cc2c1-c1ccc(S(C)(=O)=O)cc1 [Example 93, 2-(2-acetyloxyphenyl)-3-(4-methylsulfonylphenyl)-5-chloroindole] | 49.5 ± 8.2% | 54.4 ± 8.9% | 44.3% | 53.6 ± 11.4% | 33.5% | 30.7%
4 | – | 0.278 nM | 2-(4-methylsulfonylphenyl)-3-phenyl-5-methylindole [Example 83] | – | – | 47.1% | – | 46.1% | 46.1%
5 | 271 to 273 °C | – | CS(=O)(=O)c1ccc(-c2c(-c3ccc(O)cc3)[nH]c3ccc(Cl)cc23)cc1 [Example 95, 2-(4-hydroxyphenyl)-3-(4-methylsulfonylphenyl)-5-chloroindole] | – | – | – | – | – | –
6 | 173 to 175 °C | 1.48 nM | CS(=O)(=O)c1ccc(-c2[nH]c3ccc(Cl)cc3c2-c2ccc(S(C)(=O)=O)cc2)cc1 [Example 88, 2-(4-methylsulfonylphenyl)-3-(4-methylsulfonylphenyl)-5-chloroindole] | – | – | – | – | – | –
7 | 262 to 264 °C | 1.41 nM | CS(=O)(=O)c1ccc(-c2[nH]c3ccc(Br)cc3c2-c2ccccc2)cc1 [Example 82, 2-(4-methylsulfonylphenyl)-3-phenyl-5-bromoindole] | – | – | – | – | – | –
8 | 238 to 240 °C | 1.68 nM | Cc1ccc(-c2[nH]c3ccc(Cl)cc3c2-c2ccc(S(C)(=O)=O)cc2)cc1 [Example 91, 2-(4-methylphenyl)-3-(4-methylsulfonylphenyl)-5-chloroindole] | – | – | – | – | – | –
9 | 254 to 257 °C | 0.801 nM | CS(=O)(=O)c1ccc(-c2[nH]c3ccc(Cl)cc3c2-c2cccc(Cl)c2)cc1 [Example 86, 2-(4-methylsulfonylphenyl)-3-(3-chlorophenyl)-5-chloroindole] | – | – | – | – | – | –
10 | 221 to 222 °C | 0.184 nM | CC(=O)NS(=O)(=O)c1ccc(-c2[nH]c3ccccc3c2-c2ccccc2)cc1 [Example 97, 2-(N-acetamide-sulfonylphenyl)-3-phenylindole] | – | – | – | – | – | –

The remaining lines, values behind:

Row | Molecule | melting point | IC50 (COX-2) | edema (paw volume increase) ([1]; 2 h after carrageenan) | edema (paw volume increase) ([1]; 3 h after carrageenan) | inhibitory percentage of edema ([1]; 3 h after carrageenan) | edema (paw volume increase) ([1]; 4 h after carrageenan) | inhibitory percentage of edema ([1]; 4 h after carrageenan) | inhibitory percentage of edema ([1]; 2 h after carrageenan)
11 | CS(=O)(=O)c1ccc(-c2[nH]c3ccc(Cl)cc3c2-c2ccc(Cl)cc2)cc1 [Example 73, 2-(4-methylsulfonylphenyl)-3-(4-chlorophenyl)-5-chloroindole] | 281 to 283 °C | 85.1 nM | – | – | – | – | – | –
12 | Cc1ccc(-c2c(-c3ccc(S(C)(=O)=O)cc3)[nH]c3ccccc23)cc1 [Example 65, 2-(4-methylsulfonylphenyl)-3-(4-methylphenyl)indole] | 197 to 198 °C | 0.0896 nM | 18.5 ± 8.1% | 35.8 ± 6.8% | 42.8% | 27.4 ± 7.1% | 47.2% | –
13 | CS(=O)(=O)c1ccc(-c2[nH]c3ccccc3c2-c2ccc(Cl)cc2)cc1 [Example 61, 2-(4-methylsulfonylphenyl)-3-(4-chlorophenyl)indole] | 198.5 to 200.5 °C | 146 nM | 14.6 ± 7.8% | 30.6 ± 10% | 51.1% | 25.7 ± 10.1% | 50.4% | –
14 | NS(=O)(=O)c1ccc(-c2[nH]c3ccc(Cl)cc3c2-c2cccc(Cl)c2)cc1 [Example 85, 2-(4-aminosulfonylphenyl)-3-(3-chlorophenyl)-5-chloroindole] | – | – | 57.2 ± 13.6% | 62.3 ± 7.2% | 36.1% | 61.7 ± 8.8% | 23.4% | 19.8%
15 | NS(=O)(=O)c1ccc(-c2[nH]c3ccc(Cl)cc3c2-c2ccc(Cl)cc2)cc1 [Example 74, 2-(4-aminosulfonylphenyl)-3-(4-chlorophenyl)-5-chloroindole] | 245 to 247 °C | 0.541 nM | – | – | – | – | – | –
16 | Cc1ccc(-c2c(-c3ccc(S(N)(=O)=O)cc3)[nH]c3ccccc23)cc1 [Example 66, 2-(4-aminosulfonylphenyl)-3-(4-methylphenyl)indole] | 293 to 295 °C | 0.0684 nM | – | – | – | – | – | –
17 | CS(=O)(=O)c1ccc(C2=C(c3ccccc3)C(=O)OC2)cc1 [Rofecoxib, reference compound] | – | – | 50.3 ± 5.1% | 47.2 ± 2.4% | 51.6% | 38.2 ± 6.7% | 52.6% | 29.5%
18 | Cc1ccc(-c2cc(C(F)(F)F)nn2-c2ccc(S(N)(=O)=O)cc2)cc1 [Celecoxib, reference compound] | – | – | 31.1 ± 7.87% | 53.2 ± 12.6% | 51.6% | 48.8 ± 8.11% | 48.0% | –
19 | NS(=O)(=O)c1ccc(-c2[nH]c3ccc(Br)cc3c2-c2ccccc2)cc1 [Example 81, 2-(4-aminosulfonylphenyl)-3-phenyl-5-bromoindole] | 310 to 312 °C | 5 nM | – | – | – | – | – | –
20 | COc1ccc(-c2c(-c3ccc(S(N)(=O)=O)cc3)[nH]c3ccccc23)cc1 [Example 70, 2-(4-aminosulfonylphenyl)-3-(4-methoxyphenyl)indole] | – | – | 21.9 ± 11.8% | 34.6 ± 10.4% | 44.7% | 31.9 ± 11.9% | 38.5% | –
21 | NS(=O)(=O)c1ccc(-c2[nH]c3ccc(Cl)cc3c2-c2ccccc2Cl)cc1 [Example 77, 2-(4-aminosulfonylphenyl)-3-(2-chlorophenyl) -5-chloro indole] | – | 100 nM | – | – | – | – | – | –
22 | Cc1ccc(-c2c(-c3ccc(S(N)(=O)=O)cc3)[nH]c3ccccc23)cc1C [Example 68, 2-(4-aminosulfonylphenyl)-3-(3,4-dimethylphenyl)indole] | 251 to 253 °C | 1.46 nM | – | – | – | – | – | –
23 | CS(=O)(=O)c1ccc(-c2[nH]c3ccc(Cl)cc3c2-c2ccccc2)cc1 [Example 76, 2-(4-methylsulfonylphenyl)-3-phenyl-5-chloroindole] | 281 to 283 °C | – | 45 ± 17.9% | 46 ± 15.4% | 52.8% | 37.7 ± 15.6% | 53.2% | 36.9%
24 | CS(=O)(=O)c1ccc(-c2[nH]c3ccccc3c2-c2ccc(F)cc2)cc1 [Example 71, 2-(4-methylsulfonylphenyl)-3-(4-fluorophenyl)indole] | 224 to 226 °C | – | 44 ± 21.1% | 54.4 ± 9.8% | 11.1% | 49.1 ± 19% | 18.4% | –
25 | CS(=O)(=O)c1ccc(-c2[nH]c3ccc(Cl)cc3c2-c2ccccc2Cl)cc1 [Example 78, 2-(4-methylsulfonylphenyl)-3-(2-chlorophenyl) -5-chloro indole] | 300 to 301.5 °C | 10 nM | – | – | – | – | – | –
